The source of these data is EP0261503B1, “Heterocyclic amido derivatives of substituted benzoic acids and therapeutic compositions which contain them as active principle” (VALEAS S.p.A. INDUSTRIA CHIMICA E FARMACEUTICA, priority 1986, dated 1988).

For assay [1], the system named is passive cutaneous anaphylaxis. Briefly: passive cutaneous anaphylaxis test (PCA) in the rat, oral administration. In kind it is in vivo. To be noted: PCA test on the rat, oral administration 30 minutes before antigen challenge; for Activity: relative to Tranilast = 1. The procedure:
The products of general formula (I) listed in Table 1 were subjected to a first pharmacological screening to evaluate their activity after oral administration in the passive cutaneous anaphylaxis test (PCA) in the rat in accordance with Goose J. and Blair A.M.J.N. (Immunology, 16, 749-760, 1969). Serum, obtained from rats actively sensitized with ovalbumin and suitably diluted, was injected intradermally into the shave back of male Sprague Dawley rats, and after 24 hours these were treated intravenously with a solution of ovalbumin and Evans blue. Thirty minutes after the antigen challenge, the animals were sacrificed and the diameter and intensity of the blue halo which has formed in the intradermal injection site was measured. The compounds according to the invention, and also tranilast (N-3ʹ, 4ʹ-dimethoxycinnamoyl) anthranilic acid) used as reference standard, were dissolved-suspended in suitable solvents (carboxymethylcellulose, gum arabic, DMSO etc.) and administered orally thirty minutes before the antigen challenge. Table 2 lists the ED₅₀ values and the relative confidence limits at p = 0.05.

The test system of assay [2] is passive cutaneous anaphylaxis. As to the kind of experiment: passive cutaneous anaphylaxis test (PCA) in the rat, intraperitoneal administration. Format: in vivo. To be noted: ip, PCA test on the rat, 15 minutes before antigen challenge, versus control group. The procedure: The products of general formula (I) listed in Table 1 were subjected to a first pharmacological screening to evaluate their activity after oral administration in the passive cutaneous anaphylaxis test (PCA) in the rat in accordance with Goose J. and Blair A.M.J.N. (Immunology, 16, 749-760, 1969). Serum, obtained from rats actively sensitized with ovalbumin and suitably diluted, was injected intradermally into the shave back of male Sprague Dawley rats, and after 24 hours these were treated intravenously with a solution of ovalbumin and Evans blue. Thirty minutes after the antigen challenge, the animals were sacrificed and the diameter and intensity of the blue halo which has formed in the intradermal injection site was measured. Some of the compounds according to the invention were subjected to a further passive cutaneous anaphylaxis test evaluation to determine their efficiency after intraperitoneal administration at a dose of 100 mg/kg, fifteen minutes before the challenge. […]

In assay [1], `CCOC(=O)c1cc(C)sc1NC(=O)c1cccc(OC)c1[N+](=O)[O-]` [Compound 1, 3-thiophene carboxylic acid-2-[(2-nitro-3-methoxybenzoyl)amino]-5-methyl ethyl ester] had an ED₅₀ of 0.21 mmoles/kg/os and an Activity of 1.5. Further, 100 mg/kg produced 59.4% inhibition in assay [2].
In assay [1], `COc1ccc(C=CC(=O)Nc2ccccc2C(=O)O)cc1OC` [Tranilast, N-(3ʹ,4ʹ-dimethoxycinnamoyl) anthranilic acid, reference compound] had an ED₅₀ of 0.32 mmoles/kg/os and an Activity of 1.
In assay [1], `CCOC(=O)c1cc(C)sc1NC(=O)c1cccc(OC)c1N` [Compound 7, 3-THIOPHENE CARBOXYLIC ACID, 2[(2-AMINO-3-METHOXY BENZOYL)AMINO]-5-METHYL-ETHYL ESTER] had an Activity of 450.7. In assay [2], at 100 mg/kg the inhibition was 31.9%.
Taken in the same sequence, the figures for `CCOC(=O)Cc1csc(NC(=O)c2cc(C)ccc2N)n1` [Compound 37] were 213.3 and 88.4%.
For `CCOC(=O)c1cc(C)sc1-n1c(=O)[nH]c2c(OC)cccc2c1=O` [Compound 32, 8-METHOXY-3-[(3-ETHOXY CARBONYL-5-METHYL)-THIENYL]-2,4 QUINAZOLONE], in assay [1], the ED₅₀ turned out to be 0.08 mmoles/kg/os and the Activity came out at 4.0. This molecule also had an inhibition at 100 mg/kg in assay [2] of 52.7%.
The molecule `COc1cccc(C(=O)Nc2sc(C)cc2C(=O)O)c1N` [Compound 16, 3-THIOPHENE CARBOXYLIC ACID, 2-[(2-AMINO-3-METHOXY BENZOYL)AMINO]-5-METHYL] gave an Activity in assay [1] of 41.0.
As to `CCOC(=O)c1cc(C)sc1NC(=O)c1cccc(OC)c1NC(C)=O` [Compound 15, 3-THIOPHENE CARBOXYLIC ACID, 2-[(2-ACETYL AMINO-3-METHOXY BENZOYL)AMINO]-5-METHYL, ETHYL ESTER], in assay [1], the ED₅₀ came to 0.013 mmoles/kg/os and the Activity is 24.6.
The molecule `CCOC(=O)C(=O)Nc1c(OC)cccc1C(=O)Nc1sc(C)cc1C(=O)OCC` [Compound 18, 3-THIOPHENE CARBOXYLIC ACID, 2-[[2-AMINO(OXOACETIC ACID ETHYL ESTER)-3-METHOXY BENZOYL] AMINO]-5-METHYL, ETHYL ESTER] displayed an Activity in assay [1] of 114.3.
Consider `CCOC(=O)C(O)c1csc(-n2c(=O)[nH]c3c(OC)cccc3c2=O)n1` (stereo not drawn) [Compound 36, 8-METHOXY-3-[[5-(α-HYDROXY ETHYL ACETATE)]-THIAZENYL]-2,4 QUINAZOLONE], for which, in assay [1], the ED₅₀ came out at 0.054 mmoles/kg/os and the Activity is reported as 5.9. This molecule also gave an inhibition at 100 mg/kg in assay [2] of 40.7%.
Regarding `CCOC(=O)Cc1csc(NC(=O)c2cccc(OC)c2N)n1` [Compound 25, 4-THIAZOLE ACETIC ACID, 2-[(2-AMINO-3-METHOXY BENZOYL)AMINO], ETHYL ESTER], the Activity in assay [1] amounted to 64.0. Further, at 100 mg/kg the inhibition in assay [2] was 43.1%.
